Read-outs that look alike come from different tables or passages of the source.
What was measured:
KP1004 KPC-2 [1] = assay: Biapenem potentiation (MPC@1), strain KP1004 KPC-2; format: cell-based; conditions: minimum BLI concentration inhibiting growth with biapenem 1 μg/mL; tested up to 40 μg/mL
Procedure: (§1) Biapenem was present in the test medium at 1 μg/mL. […] Table 3 summarizes the BLI potency of biapenem potentiation (MPC@1) for two strains overexpressing class A (KPC) and class D (OXA-48) carbapenemases. Biapenem MIC for each strain is also shown.

KP1086 OXA-48 = assay: Biapenem potentiation (MPC@1), strain KP1086 OXA-48; format: cell-based; conditions: minimum BLI concentration inhibiting growth with biapenem 1 μg/mL; tested up to 40 μg/mL
Procedure: as §1

AB1053 OXA-72 = assay: Meropenem potentiation (MPC@8), strain AB1053 OXA-72; format: cell-based, Acinetobacter baumannii; conditions: minimum BLI concentration inhibiting growth with meropenem 8 μg/mL; tested up to 20 μg/mL
AB1054 OXA-23 = assay: Meropenem potentiation (MPC@8), strain AB1054 OXA-23; format: cell-based, Acinetobacter baumannii; conditions: minimum BLI concentration inhibiting growth with meropenem 8 μg/mL; tested up to 20 μg/mL
[2] = target: T1, purified class A, C and D enzymes (β-lactamases) (Acinetobacter baumannii, UniProt Q9L4P2); assay: biochemical; format: biochemical; conditions: purified OXA-23; nitrocefin (NCF) as reporter substrate
T1 construct: rows headed: Ki (OXA-23, NCF), uM; other: purified OXA-23; nitrocefin (NCF) as reporter substrate

[3] = target: purified class A, C and D enzymes (β-lactamases) (Enterobacter cloacae, UniProt P05364); assay: biochemical; format: biochemical
[4] = target: purified class A, C and D enzymes (β-lactamases) (Escherichia coli, UniProt Q9L5C7); assay: biochemical; format: biochemical; conditions: purified CTX-M-14; nitrocefin (NCF) as reporter substrate
[5] = target: purified class A, C and D enzymes (β-lactamases) (Klebsiella pneumoniae, UniProt Q6XEC0); assay: biochemical; format: biochemical; conditions: purified OXA-48; nitrocefin (NCF) as reporter substrate
[6] = target: purified class A, C and D enzymes (β-lactamases) (Klebsiella pneumoniae, UniProt Q9F663); assay: biochemical; format: biochemical; conditions: purified KPC-2; nitrocefin (NCF) as reporter substrate
[7] = target: T2, purified class A, C and D enzymes (β-lactamases) (Pseudomonas aeruginosa, UniProt P24735); assay: biochemical; format: biochemical
T2 construct: rows headed: Ki (Pa-AmpC, NCF), uM; other: purified Pa-AmpC; nitrocefin (NCF) as reporter substrate

ECL1002 = assay: Aztreonam potentiation (MPC@4), strain ECL1002; conditions: minimum BLI concentration inhibiting growth with aztreonam 4 μg/mL; tested up to 40 μg/mL
ec308 SHV-5 = assay: Aztreonam potentiation (MPC@4), strain ec308 SHV-5; conditions: minimum BLI concentration inhibiting growth with aztreonam 4 μg/mL; tested up to 40 μg/mL
ec302 TEM-10 = assay: Aztreonam potentiation (MPC@4), strain ec302 TEM-10; conditions: minimum BLI concentration inhibiting growth with aztreonam 4 μg/mL; tested up to 40 μg/mL
KP1004 KPC-2 [8] = assay: Aztreonam potentiation (MPC@4), strain KP1004 KPC-2; conditions: minimum BLI concentration inhibiting growth with aztreonam 4 μg/mL; tested up to 40 μg/mL
EC1010 CMY-6 = assay: Aztreonam potentiation (MPC@4), strain EC1010 CMY-6; conditions: minimum BLI concentration inhibiting growth with aztreonam 4 μg/mL; tested up to 40 μg/mL
KP1010 SHV-12 = assay: Aztreonam potentiation (MPC@4), strain KP1010 SHV-12; conditions: minimum BLI concentration inhibiting growth with aztreonam 4 μg/mL; tested up to 40 μg/mL
KP1009 CTX-M-15 = assay: Aztreonam potentiation (MPC@4), strain KP1009 CTX-M-15; conditions: minimum BLI concentration inhibiting growth with aztreonam 4 μg/mL; tested up to 40 μg/mL
KP1005 CTX-M-14 = assay: Tigemonam potentiation (MPC@4), strain KP1005 CTX-M-14; conditions: minimum BLI concentration inhibiting growth with tigemonam 4 μg/mL; tested up to 40 μg/mL
[9] = purified P99, nitrocefin (NCF) as reporter substrate
[10] = purified Pa-AmpC, nitrocefin (NCF) as reporter substrate, read-out: Ki (Pa-AmpC, NCF)

T2 sequence (P24735 whole entry): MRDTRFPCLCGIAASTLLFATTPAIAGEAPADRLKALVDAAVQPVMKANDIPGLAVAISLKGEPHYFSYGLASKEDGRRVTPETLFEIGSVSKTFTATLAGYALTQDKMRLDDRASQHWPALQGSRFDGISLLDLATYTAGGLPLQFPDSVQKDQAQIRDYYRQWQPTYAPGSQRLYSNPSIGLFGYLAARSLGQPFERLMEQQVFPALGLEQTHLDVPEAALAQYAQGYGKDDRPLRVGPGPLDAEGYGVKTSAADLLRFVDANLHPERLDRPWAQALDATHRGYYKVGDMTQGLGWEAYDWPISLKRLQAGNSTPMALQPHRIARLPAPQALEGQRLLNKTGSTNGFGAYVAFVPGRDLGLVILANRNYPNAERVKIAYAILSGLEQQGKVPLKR
Sequence of purified class A, C and D enzymes (β-lactamases) (Enterobacter cloacae, UniProt P05364) (P05364 21-381): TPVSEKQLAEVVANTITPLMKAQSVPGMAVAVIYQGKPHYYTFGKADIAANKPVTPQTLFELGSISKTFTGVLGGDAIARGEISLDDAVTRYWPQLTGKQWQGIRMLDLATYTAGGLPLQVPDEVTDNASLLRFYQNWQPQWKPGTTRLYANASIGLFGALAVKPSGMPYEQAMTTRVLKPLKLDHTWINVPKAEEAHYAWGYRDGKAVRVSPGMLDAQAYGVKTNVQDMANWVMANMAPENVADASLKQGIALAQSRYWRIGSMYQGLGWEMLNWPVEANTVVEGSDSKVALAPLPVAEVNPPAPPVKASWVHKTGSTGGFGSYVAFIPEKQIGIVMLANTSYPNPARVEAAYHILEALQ
Sequence of purified class A, C and D enzymes (β-lactamases) (Escherichia coli, UniProt Q9L5C7) (Q9L5C7 entry or part of it): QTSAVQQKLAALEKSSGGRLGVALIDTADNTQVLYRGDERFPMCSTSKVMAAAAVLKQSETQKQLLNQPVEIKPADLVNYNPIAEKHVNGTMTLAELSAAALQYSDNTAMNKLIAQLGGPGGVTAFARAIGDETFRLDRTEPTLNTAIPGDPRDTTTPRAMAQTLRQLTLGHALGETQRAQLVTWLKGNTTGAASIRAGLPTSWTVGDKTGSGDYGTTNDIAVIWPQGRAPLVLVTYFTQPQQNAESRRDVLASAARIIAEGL
T1 sequence (Q9L4P2 whole entry): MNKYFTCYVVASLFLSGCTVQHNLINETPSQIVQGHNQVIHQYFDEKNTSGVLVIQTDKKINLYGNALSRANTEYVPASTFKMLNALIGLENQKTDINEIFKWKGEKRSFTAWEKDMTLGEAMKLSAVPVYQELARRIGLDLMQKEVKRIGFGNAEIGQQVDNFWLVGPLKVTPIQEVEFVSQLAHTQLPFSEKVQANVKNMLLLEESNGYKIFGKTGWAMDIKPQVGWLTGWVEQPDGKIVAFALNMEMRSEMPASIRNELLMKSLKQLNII

Row | SMILES | BPM MPC1 KP1004 KPC-2 (KP1004 KPC-2 [1]) | BPM MPC1 OXA-48 KP1086 (KP1086 OXA-48) | MPM MPC8 AB1053 OXA-72 (AB1053 OXA-72) | MPM MPC8 AB1054 OXA-23 (AB1054 OXA-23) | Ki [2] | Ki (P99, NCF), uM [3] | Ki (CTX-M-14, NCF), uM [4] | Ki (OXA-48, NCF), uM [5] | Ki (KPC-2, NCF), uM [6] | Ki [7] | AZT MPC4 ECL1002 (ECL1002) | AZT MPC4 SHV-5 ec308 (ec308 SHV-5) | AZT MPC4 TEM-10 ec302 (ec302 TEM-10) | AZT MPC4 KPC-2 KP1004 (KP1004 KPC-2 [8]) | AZT MPC4 CMY-6 EC1010 (EC1010 CMY-6) | AZT MPC4 SHV-12 KP1010 (KP1010 SHV-12) | AZT MPC4 CTX-M-15 KP1009 (KP1009 CTX-M-15) | TIG MPC4 CTX-M-14 KP1005 (KP1005 CTX-M-14) | Ki (P99, NCF), uM [3, 9] | Ki [7, 10]
1 | O=C([O-])c1c(OCCN2CCOCC2)ccc2c1O[B-](O)(O)CC2.[Na+].[Na+] [Compound 27, Disodium; 4,4-dihydroxy-8-(2-morpholinoethoxy)-5-oxa-4-boranuidabicyclo[4.4.0]deca-1(6),7,9-triene-7-carboxylate] | X (X = MPC@1 ≤ 5 μg/mL) | Y (Y = 5 μg/mL < MPC@1 ≤ 20 μg/mL) | Y (Y = 5 μg/mL < MPC@1 ≤ 20 μg/mL) | Y (Y = 5 μg/mL < MPC@1 ≤ 20 μg/mL) | < 100 nM | X (key: X = Ki ≤ 0.1 μM; Y = 0.1 μM < Ki ≤ 1 μM; Z = Ki > 1 μM) | X (X = Ki ≤ 0.1 μM) | X (X = Ki ≤ 0.1 μM) | X (X = Ki ≤ 0.1 μM) | 100 to 1000 nM | X (X = MPC@4 ≤ 5 μg/mL) | Y (Y = 5 μg/mL < MPC@4 ≤ 20 μg/mL) | Y (Y = 5 μg/mL < MPC@4 ≤ 20 μg/mL) | X (X = MPC@4 ≤ 5 μg/mL) | X (X = MPC@4 ≤ 5 μg/mL) | X (X = MPC@4 ≤ 5 μg/mL) | Y (Y = 5 μg/mL < MPC@4 ≤ 20 μg/mL) | Z (Z = MPC@4 > 20 μg/mL) | – | –
2 | O=C([O-])c1c(OCc2ccncc2)ccc2c1O[B-](O)(O)CC2.[Na+].[Na+] [Compound 28, Disodium; 4,4-dihydroxy-8-(4-pyridylmethoxy)-5-oxa-4-boranuidabicyclo[4.4.0]deca-1(6),7,9-triene-7-carboxylate] | X (X = MPC@1 ≤ 5 μg/mL) | X (X = MPC@1 ≤ 5 μg/mL) | X (X = MPC@1 ≤ 5 μg/mL) | X (X = MPC@1 ≤ 5 μg/mL) | < 100 nM | X (key: X = Ki ≤ 0.1 μM; Y = 0.1 μM < Ki ≤ 1 μM; Z = Ki > 1 μM) | X (X = Ki ≤ 0.1 μM) | X (X = Ki ≤ 0.1 μM) | X (X = Ki ≤ 0.1 μM) | < 100 nM | Y (Y = 5 μg/mL < MPC@4 ≤ 20 μg/mL) | Y (Y = 5 μg/mL < MPC@4 ≤ 20 μg/mL) | X (X = MPC@4 ≤ 5 μg/mL) | X (X = MPC@4 ≤ 5 μg/mL) | X (X = MPC@4 ≤ 5 μg/mL) | X (X = MPC@4 ≤ 5 μg/mL) | Y (Y = 5 μg/mL < MPC@4 ≤ 20 μg/mL) | Z (Z = MPC@4 > 20 μg/mL) | – | –
3 | O=C([O-])c1c(OCC(F)F)ccc2c1O[B-](O)(O)CC2.[Na+].[Na+] [Compound 29, Disodium; 8-(2,2-difluoroethoxy)-4,4-dihydroxy-5-oxa-4-boranuidabicyclo[4.4.0]deca-1(6),7,9-triene-7-carboxylate] | X (X = MPC@1 ≤ 5 μg/mL) | X (X = MPC@1 ≤ 5 μg/mL) | X (X = MPC@1 ≤ 5 μg/mL) | Y (Y = 5 μg/mL < MPC@1 ≤ 20 μg/mL) | < 100 nM | X (key: X = Ki ≤ 0.1 μM; Y = 0.1 μM < Ki ≤ 1 μM; Z = Ki > 1 μM) | X (X = Ki ≤ 0.1 μM) | X (X = Ki ≤ 0.1 μM) | X (X = Ki ≤ 0.1 μM) | < 100 nM | X (X = MPC@4 ≤ 5 μg/mL) | X (X = MPC@4 ≤ 5 μg/mL) | Y (Y = 5 μg/mL < MPC@4 ≤ 20 μg/mL) | X (X = MPC@4 ≤ 5 μg/mL) | X (X = MPC@4 ≤ 5 μg/mL) | X (X = MPC@4 ≤ 5 μg/mL) | Y (Y = 5 μg/mL < MPC@4 ≤ 20 μg/mL) | Y (Y = 5 μg/mL < MPC@4 ≤ 20 μg/mL) | – | –
4 | COc1ccc2c(c1P(=O)(O)O)OB(O)CC2 [Compound 33, (2-Hydroxy-7-methoxy-3,4-dihydro-1,2-benzoxaborinin-8-yl)phosphonic acid] | X (X = MPC@1 ≤ 5 μg/mL) | X (X = MPC@1 ≤ 5 μg/mL) | Y (Y = 5 μg/mL < MPC@1 ≤ 20 μg/mL) | Y (Y = 5 μg/mL < MPC@1 ≤ 20 μg/mL) | < 100 nM | – | X (X = Ki ≤ 0.1 μM) | X (X = Ki ≤ 0.1 μM) | Z (Z = Ki > 1 μM) | – | Z (Z = MPC@4 > 20 μg/mL) | Z (Z = MPC@4 > 20 μg/mL) | Z (Z = MPC@4 > 20 μg/mL) | Z (Z = MPC@4 > 20 μg/mL) | Y (Y = 5 μg/mL < MPC@4 ≤ 20 μg/mL) | Z (Z = MPC@4 > 20 μg/mL) | Z (Z = MPC@4 > 20 μg/mL) | Z (Z = MPC@4 > 20 μg/mL) | Y (Y = 0.1 μM < Ki ≤ 1 μM) | > 1000 nM
5 | COc1c(F)cc2c(c1C(=O)O)OB(O)CC2 [Compound 34, 6-Fluoro-2-hydroxy-7-methoxy-3,4-dihydro-1,2-benzoxaborinine-8-carboxylic acid] | X (X = MPC@1 ≤ 5 μg/mL) | X (X = MPC@1 ≤ 5 μg/mL) | X (X = MPC@1 ≤ 5 μg/mL) | X (X = MPC@1 ≤ 5 μg/mL) | < 100 nM | – | X (X = Ki ≤ 0.1 μM) | X (X = Ki ≤ 0.1 μM) | X (X = Ki ≤ 0.1 μM) | – | X (X = MPC@4 ≤ 5 μg/mL) | X (X = MPC@4 ≤ 5 μg/mL) | X (X = MPC@4 ≤ 5 μg/mL) | X (X = MPC@4 ≤ 5 μg/mL) | X (X = MPC@4 ≤ 5 μg/mL) | X (X = MPC@4 ≤ 5 μg/mL) | X (X = MPC@4 ≤ 5 μg/mL) | Z (Z = MPC@4 > 20 μg/mL) | X (X = Ki ≤ 0.1 μM) | < 100 nM
